# Read-outs that look alike come from different tables or passages of the source.
# Tests used:
# Assay type in all cases: in vivo
# [1] = system: Puccinia recondita tritici (leaf rust); assay: Greenhouse Test 1, foliar spray fungicide screen (LEAF RUST), host wheat; conditions: disease control rating, 400 ppm (+++ at 100 ppm)
# [2] = system: Twospotted spider mites (Tetranychus urticae Koch); assay: Mite/insect screen, sprayed squash cotyledons (SM); conditions: Tetranychus urticae, percent mortality, read-out: SM RESULTS %; for mortality at 200 ppm: spray rate 200 ppm
# Procedure, shortened: (§1)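 Mortality and phytotoxicity read after standard exposure periods on sprayed squash: cotyledons for melon aphids and twospotted spider mites, excised leaves placed with southern armyworm larvae. Spray solutions were water dilutions of acetone/alcohol stocks containing TOXIMUL R and S emulsifiers, applied to runoff at 10 psi and air-dried one hour.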
# [3] = system: Erysiphe graminis tritici (powdery mildew); assay: Greenhouse Test 1, foliar spray fungicide screen (POWD MDEW), host wheat; conditions: disease control rating, 400 ppm (+++ at 100 ppm)
# [4] = system: Pyricularia oryzae (rice blast); conditions: disease control rating, foliar spray, host rice; 400 ppm (+++ at 100 ppm)
# [5] = system: melon aphids (Aphis gossypii Glover); assay: Mite/insect screen, sprayed squash cotyledons (MA); conditions: Aphis gossypii, percent mortality, read-out: MA RESULTS %; for mortality at 200 ppm: spray rate 200 ppm
# Procedure, shortened: as §1
# [6] = system: Pseudoperonospora cubensis (downy mildew); assay: Greenhouse Test 1, foliar spray fungicide screen (DOWN MDEW), host squash; conditions: disease control rating, 400 ppm (+++ at 100 ppm)
# [7] = system: Southern corn rootworm (Diabrotica undecimpuctata howardi Barber); assay: Mite/insect screen, soil treatment (CRW); conditions: Diabrotica, percent mortality, soil treatment, read-out: CRW RESULTS %; for mortality at 12 ppm: CRW rate 12.00 ppm
# Procedure, shortened: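 Five 2–3 instar larvae were placed on dry sandy soil with a presoaked corn seed after the soil had received 1 mL of compound solution and dried 6–12 h; cups were kept capped at 23°C. Mortality (%) and phytotoxicity were read after standard exposure. Formulation: acetone/alcohol with emulsifiers, water-diluted.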
# [8] = system: southern armyworm (Spodopetra eridania Cramer); assay: Mite/insect screen, sprayed squash leaves (SAW); conditions: Spodoptera eridania, percent mortality, read-out: SAW RESULTS %; for mortality at 200 ppm: spray rate 200 ppm
# Procedure, shortened: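 Water-diluted formulations of each compound (acetone/alcohol 50:50 with 23 g/L and 13 g/L emulsifier blends) are sprayed over both leaf faces to runoff. After a standard exposure period, percent kill and phytotoxicity are recorded.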
# [9] = system: Botrytis cinerea (gray mold); assay: Greenhouse Test 1, foliar spray fungicide screen (GRAY MOLD), host grape berries; conditions: disease control rating, 400 ppm (+++ at 100 ppm)
SMILES,LEAF RUST [1],"mortality at 400 ppm ([2]; twospotted spider mites, sprayed squash cotyledons, RATE 400 PPM) [%]",mortality at 200 ppm [2] [%],POWD MDEW [3],RICE BLAST [4],"mortality at 400 ppm ([5]; melon aphids, sprayed squash cotyledons, RATE 400 PPM) [%]",mortality at 200 ppm [5] [%],DOWN MDEW [6],"mortality at 24 ppm ([7]; corn rootworm, CRW RATE 24.00 PPM) [%]",mortality at 12 ppm [7] [%],"mortality at 400 ppm ([8]; Southern armyworm, sprayed squash leaves, RATE 400 PPM) [%]",mortality at 200 ppm [8] [%],GRAY MOLD [9],mortality at 400 ppm ([2]; spray rate 400 ppm) [%],mortality at 400 ppm ([5]; spray rate 400 ppm) [%],mortality at 24 ppm ([7]; CRW rate 24.00 ppm) [%],mortality at 400 ppm ([8]; spray rate 400 ppm) [%]
"Fc1ccccc1Oc1ccc(CCOc2ncnc3c(F)cccc23)cc1 [Example 198, 8-fluoro-4-[2-[4-(2-fluorophenoxy)phenyl]ethoxy]quinazoline]",+++ (+++ = 90-100% control at 100 ppm),0,100,+++ (+++ = 90-100% control at 100 ppm),+++ (+++ = 90-100% control at 100 ppm),0,100,+++ (+++ = 90-100% control at 100 ppm),0,0,100,100,- (- = 0-19% control at 400 ppm),–,–,–,–
"FC(F)(F)c1cccc(CCCOc2ncnc3ccccc23)c1 [Example 196, 4-[3-(3-trifluoromethylphenyl)propoxy]quinazoline]",- (- = 0-19% control at 400 ppm),–,0,++ (++ = 90-100% control at 400 ppm),- (- = 0-19% control at 400 ppm),–,0,- (- = 0-19% control at 400 ppm),–,0,–,0,- (- = 0-19% control at 400 ppm),0,0,0,0
"FC(F)(F)c1cccc(Oc2ccc(CCOc3ncnc4ccccc34)cc2)c1 [Example 188, 4-[2-[4-[3-(trifluoromethyl)phenoxy]phenyl]ethoxy]quinazoline]",+++ (+++ = 90-100% control at 100 ppm),–,100,+++ (+++ = 90-100% control at 100 ppm),+++ (+++ = 90-100% control at 100 ppm),–,100,+++ (+++ = 90-100% control at 100 ppm),–,0,–,0,- (- = 0-19% control at 400 ppm),–,80,100,80
"Clc1cccc2c(NCCc3cccc(Oc4ccccc4)c3)ncnc12 [Example 166, 8-chloro-N-[2-(3-phenoxyphenyl)ethyl]-4-quinazolinamine]",+++ (+++ = 90-100% control at 100 ppm),–,0,+ (+ = 20-89% control at 400 ppm),++ (++ = 90-100% control at 400 ppm),–,0,+ (+ = 20-89% control at 400 ppm),–,0,–,0,- (- = 0-19% control at 400 ppm),0,60,0,0
"COc1ccccc1CCOc1ncnc2ccccc12 [Example 14, 4-[2-(2-methoxyphenyl)ethoxy]quinazoline]",+ (+ = 20-89% control at 400 ppm),–,–,+ (+ = 20-89% control at 400 ppm),+ (+ = 20-89% control at 400 ppm),–,–,++ (++ = 90-100% control at 400 ppm),–,–,–,–,- (- = 0-19% control at 400 ppm),0,0,0,0
"COc1ccc(CCOc2ncnc3c(F)cccc23)cc1 [Example 132, 8-fluoro-4-[2-(4-methoxyphenyl)ethoxy]quinazoline]",+++ (+++ = 90-100% control at 100 ppm),–,20,+++ (+++ = 90-100% control at 100 ppm),+++ (+++ = 90-100% control at 100 ppm),–,80,+++ (+++ = 90-100% control at 100 ppm),–,0,–,0,- (- = 0-19% control at 400 ppm),0,0,0,0
"CCC(COc1ncnc2c(F)cccc12)c1ccc(-c2ccccc2)cc1 (stereo not drawn) [Example 197, 8-fluoro-4-[2-(1,1'-biphenyl)-4-ylbutoxy)quinazoline]",- (- = 0-19% control at 400 ppm),–,80,+ (+ = 20-89% control at 400 ppm),+ (+ = 20-89% control at 400 ppm),–,80,- (- = 0-19% control at 400 ppm),–,0,–,0,- (- = 0-19% control at 400 ppm),0,0,0,0
"CC(CNc1ncnc2c(F)cccc12)c1ccc(Cl)cc1 (stereo not drawn) [Example 17, N-[2-(4-chlorophenyl)propyl]-8-fluoro-4-quinazolinamine]",+++ (+++ = 90-100% control at 100 ppm),–,–,++ (++ = 90-100% control at 400 ppm),+++ (+++ = 90-100% control at 100 ppm),–,–,+++ (+++ = 90-100% control at 100 ppm),–,–,–,–,- (- = 0-19% control at 400 ppm),100,100,0,0
"Fc1cccc2c(OCCc3ccccc3)ncnc12 [Example 95, 8-fluoro-4-(2-phenylethoxy)quinazoline]",+++ (+++ = 90-100% control at 100 ppm),–,0,+++ (+++ = 90-100% control at 100 ppm),- (- = 0-19% control at 400 ppm),–,80,+++ (+++ = 90-100% control at 100 ppm),–,0,–,0,- (- = 0-19% control at 400 ppm),0,0,0,0
"CC(C)(C)c1ccc(CCOc2ncnc3ccc(Cl)cc23)cc1 [Example 174, 6-chloro-4-[2-[4-(t-butyl)phenyl]ethoxy]quinazoline]",- (- = 0-19% control at 400 ppm),–,80,+ (+ = 20-89% control at 400 ppm),++ (++ = 90-100% control at 400 ppm),–,0,++ (++ = 90-100% control at 400 ppm),–,0,–,0,- (- = 0-19% control at 400 ppm),40,0,100,0
"CCCCOc1ccc(CCOc2ncnc3ccccc23)cc1 [Example 180, 4-[2-(4-butoxyphenyl)ethoxy]quinazoline]",+++ (+++ = 90-100% control at 100 ppm),–,80,+++ (+++ = 90-100% control at 100 ppm),+++ (+++ = 90-100% control at 100 ppm),–,50,+++ (+++ = 90-100% control at 100 ppm),–,0,–,0,- (- = 0-19% control at 400 ppm),100,100,0,100
"CCOc1ccc(CCCOc2ncnc3ccccc23)cc1 [Example 158, 4-[3-(4-ethoxyphenyl)propoxy]quinazoline]",+ (+ = 20-89% control at 400 ppm),–,0,+ (+ = 20-89% control at 400 ppm),++ (++ = 90-100% control at 400 ppm),–,0,+++ (+++ = 90-100% control at 100 ppm),–,0,–,0,- (- = 0-19% control at 400 ppm),60,40,0,0
